Measurements taken from US8557796B2, “Substituted 1-oxa-2,8-diaza-spiro [4,5] dec-2-ene derivatives and related treatment methods” (Gruenenthal GmbH, priority 2001, dated 2013).

Tested on: batrachotoxin (BTX) binding site (binding site 2) of the sodium channel
Test: Bond test on the sodium channel, binding site 2 (BTX bond), [3H]-batrachotoxinin A20 α-benzoate displacement
Conditions: rat cerebrocortex synaptosomes

| Structure (SMILES) | BTX bond, 10 μM, % inhibition |
| --- | --- |
| O=C(C1=NOC2(CCN(S(=O)(=O)c3cccs3)CC2)C1)N1CCN(C2CCCCCC2)CC1 [Example 3, (4-cycloheptyl-piperazin-l-yl)-[8-(thiophene-2-sulphonyl)-1-oxa-2,8-diaza-spiro [4,5]dec-2-en-3-yl]-methanone] | 78% |
| O=C(NC1CCN(Cc2ccc3ccccc3c2)C1)C1=NOC2(CCN(S(=O)(=O)c3ccc(Cl)s3)CC2)C1 (centres unmarked) [Example 50, 8-(5-chloro-thiophene-2-sulphonyl)-1-oxa-2,8-diaza-spiro[4,5]dec-2-ene-3 carboxylic acid (1-naphthalen-2-ylmethyl-pyrrolidin-3-yl)-amide] | 87% |
| CCCC(=O)N1CCC2(CC1)CC(C(=O)NC1CCN(C(=O)OCC)CC1)=NO2 [Example 74, 4-[(8-butyryl-1-oxa-2,8-diaza-spiro[4,5]dec-2-ene-3-carbonyl)-amino]-piperidine-l-carboxylic acid ethyl ester] | 47% |
| Cc1ccc(F)c(C(=O)N2CCC3(CC2)CC(C(=O)NCc2cccs2)=NO3)c1F [Example 170, 8-(2,6-difluoro-3-methyl-benzoyl)-1-oxa-2,8-diaza-spiro[4,5]dec-2-ene-3-carboxylic acid (thiophen-2-ylmethyl)-amide] | 59% |
| Cc1cc(C(=O)N2CCC3(CC2)CC(C(=O)NCC(C)C)=NO3)ccc1Br [Example 88, 8-(4-bromo-3-methyl-benzoyl)-1-oxa-2,8-diaza-spiro[4,5]dec-2-ene-3-carboxylic acid isobutyl-amide] | 45% |
| Cc1ccccc1N1CCN(C(=O)C2=NOC3(CCN(S(=O)(=O)Cc4ccccc4)CC3)C2)CC1 [Example 133, (8-phenylmethanesulphonyl-1-oxa-2,8-diaza-spiro[4,5]dec-2-en-3-yl)-(4-o-tolyl-piperazin-l-yl)-methanone] | 47% |
| CC1CCCCN1CCCNC(=O)C1=NOC2(CCN(S(=O)(=O)c3cc(Cl)ccc3Cl)CC2)C1 (centres unmarked) [Example 15, 8-(2,5-dichloro-benzenesulphonyl)-1-oxa-2,8-diaza-spiro[4,5]dec-2-ene-3-carboxylic acid[3-(2-methyl-piperidin-1-yl)-propyl]-amide] | 88% |
| O=C(NC1CCCC1OCc1ccccc1)C1=NOC2(CCN(S(=O)(=O)c3ccc(Cl)s3)CC2)C1 (centres unmarked) [Example 191] | 75% |
| O=C(NC1CCCC1OCc1ccccc1)C1=NOC2(CCN(S(=O)(=O)c3cccs3)CC2)C1 (centres unmarked) [Example 47, 8-(thiophene-2-sulphonyl)-1-oxa-2,8-diaza-spiro[4,5]dec-2-ene-3-carboxylic acid (2-benzyloxy-cyclopentyl)-amide] | 71% |
| O=C(Cc1ccc(F)c(F)c1)N1CCN(C(=O)C2=NOC3(CCN(S(=O)(=O)c4cccc(C(F)(F)F)c4)CC3)C2)CC1 [Example 93] | 52% |
| O=C(NCC1CC1)C1=NOC2(CCN(C(=O)c3ccc(SC(F)(F)F)cc3)CC2)C1 [Example 108, 8-(4-trifluoromethylsulphanyl-benzoyl)-1-oxa-2,8-diaza-spiro[4,5]dec-2-ene-3-carboxylic acid cyclopropylmethyl-amide] | 43% |
| O=C(NC1CCCC1)C1=NOC2(CCN(C(=O)c3ccc([N+](=O)[O-])cc3Cl)CC2)C1 [Example 5, 8-(2-chloro-4-nitro-benzoyl)-1-oxa-2,8-diaza-spiro[4,5]dec-2-ene-3-carboxylic acid cyclopentylamide] | 64% |
| O=C(NCCN1CCCC1)C1=NOC2(CCN(S(=O)(=O)c3ccc(F)c(Cl)c3)CC2)C1 [Example 11] | 69% |
| Cc1ccc(S(=O)(=O)N2CCC3(CC2)CC(C(=O)N2CCN(C(C)c4ccccc4)CC2)=NO3)cc1 (stereo not drawn) [Example 32, [4-(1-phenyl-ethyl)-piperazin-l-yl]-[8-(toluene-4-sulphonyl)-1-oxa-2,8-diaza-spiro[4,5]dec-2-en-3-yl]-methanone] | 66% |
| Cc1oc(C(C)(C)C)cc1C(=O)N1CCC2(CC1)CC(C(=O)NC1CCCC1)=NO2 [Example 126, 8-(5-tert-butyl-2-methyl-furan-3-carbonyl)-1-oxa-2,8-diaza-spiro[4,5]dec-2-ene-3-carboxylic acid cyclopentylamide] | 56% |
| O=C(NCc1cccs1)C1=NOC2(CCN(C(=O)c3cccc(Cl)c3F)CC2)C1 [Example 146, 8-(3-chloro-2-fluorobenzoyl)-1-oxa-2,8-diaza-spiro[4,5]dec-2-ene-3-carboxylic acid (thiophen-2-ylmethyl)-amide] | 67% |
| CC(NC(=O)C1=NOC2(CCN(S(=O)(=O)c3cccs3)CC2)C1)c1cccc2c1OCCO2 (centres unmarked) [Example 84, 8-(thiophene-2-sulphonyl)-1-oxa-2,8-diaza-spiro[4,5]dec-2-ene-3-carboxylic acid [1-(2,3-dihydro-benzo[1,4]dioxin-5-yl)-ethyl]-amide] | 58% |
| Cc1onc(-c2c(Cl)cccc2Cl)c1C(=O)N1CCC2(CC1)CC(C(=O)NCc1cccs1)=NO2 [Example 197, 8-[3-(2,6-dichloro-phenyl)-5-methyl-isoxazole-4-carbonyl]-1-oxa-2,8-diaza-spiro[4,5]dec-2-ene-3-carboxylic acid (thiophen-2-ylmethyl)-amide] | 70% |
| COc1ccc(S(=O)(=O)N2CCC3(CC2)CC(C(=O)NC2CC2c2ccccc2)=NO3)cc1 (centres unmarked) [Example 182, 8-(4-methoxy-benzenesulphonyl)-1-oxa-2,8-diaza-spiro[4,5]dec-2-ene-3-carboxylic acid (2-phenyl-cyclopropyl)-amide] | 47% |
| O=C(NCc1ccccc1)C1=NOC2(CCN(C(=O)c3ccncc3)CC2)C1 [Example 102, 8-(pyridine-4-carbonyl)-1-oxa-2,8-diaza-spiro[4,5]dec-2-ene-3-carboxylic acid benzylamide] | 43% |
